Measured values taken from patent US6451971B1, “Physiologically active peptides” (Hisamitsu Pharmaceutical Co., Ltd., priority 1999, dated 2002).
Entries after “also recorded” stand apart in the source; their conditions may differ. Where no end group is shown, it is not given here.

Assays:
[1] = Saiki et al., Jpn. J. Cancer Res., 84, 558, 1993; cited from earlier work
[2] = Saiki et al., Jpn. J. Cancer Res., 84, 558, 1993; cited from earlier work; remark: listed apart in the source
melanoma cells = conditions: Humphries, Science 233, 467, 1986; cited from earlier work
[3] = tested on: K562 cell line derived from human chronic myelocytic leukemia; experiment: Cell adhesion inhibitory activity on Mn2+-treated anchorage-independent K562 cells on fibronectin-coated plates; format: cell-based; conditions: for cell adhesion inhibitory activity (alanine scanning): K562 cells, biotinylated peptides of Table 1, conducted similarly to Example 2, FIG. 6
From the text: (§1) (Danen et al., J. Biol. Chem., 270, 37, 21612, 1995; Mould et al., J. Biol. Chem., 270, 44, 26270, 1995.) This allows the cells to acquire adhesiveness to the extracellular matrices mediated by integrins. Such experimental induction of adhesion can be utilized as models for cell adhesion in the processes of metastatis of cancer cells and infiltration of inflammatory cells into tissues.
(§2) The K562 cell line derived from human chronic myelocytic leukemia, U937 cell line derived from human hystiocytic lymphoma and Ramos cell line derived from human Burkitt's lymphoma (all available from American Type Tissue Culture Collection-ATCC), which are one kind of anchorage-independent cells, were then treated with Mn^2+ to prepare a system, where the cell adhesion inhibitory activity of the peptides was evaluated.
Ninety six well plates were coated with fibronectin, which is one kind of extracellular matrix: fibronectin (FN) was prepared by the method of Fukai et al., J. Biol. Chem., 266, 8807, 1991. After cells were suspended to a cell density of 2×10^5/ml in a HEPES buffered physiological saline containing 0.1 mM Mn^2+, the cells (100 μl) were added to the plate and incubated at 37° C. under 5% CO2 for 60 min. Concurrently with addition of the cell suspension, the biotinylated peptide as synthesized in Example 1 (the amino acid sequence of the peptide portion is set forth in SEQ ID NO: 2) was added to the plate to give a final concentration of from 50 to 200 μg/ml. […] As a negative control, the group to which only biotin (unbound with the peptide) had been added was also evaluated.
FN coating was carried out by adding to each well, FN phosphate buffer (100 μl) that had been prepared to 10 μg/ml, by conducting incubation at 37° C. under 5% CO2 for 60 min and then by washing the well with phosphate buffer 3 times. After cells in each well were fixed with 5% formaldehyde (Wako Pure Chemical Industries, Ltd.), unbound cells were removed and five areas were randomly selected in each well to count the cells under a microscope.
The alanine scanning method is a technique that is used to identify amino acid sequence regions essential to physiological activities of proteins and peptides. (Puffer et al., J. Virol., 71, 6541, 1997; Wu and Hersh, J. Biol. Chem., 270, 49, 29111, 1995.) This method was then employed to analyze the present peptides. The peptides listed in Table 1, all of which were biotinylated (Example 1), were used in the experiments. For evaluation, the K562 cells derived from human chronic myelocytic leukemia, which was one kind of anchorage-independent cell, were used.
Evaluation of the cell adhesion inhibitory activity was conducted similarly to Example 2.

[4] = tested on: U937 cell line derived from human hystiocytic lymphoma; experiment: Cell adhesion inhibitory activity on Mn2+-treated anchorage-independent U937 cells on fibronectin-coated plates; format: cell-based; conditions: U937 cells in 0.1 mM Mn2+, biotinylated peptide 50 to 200 μg/ml, 60 min, adherent cells counted
From the text: as §1, §2
(§3) Ninety six well plates were coated with fibronectin, which is one kind of extracellular matrix: fibronectin (FN) was prepared by the method of Fukai et al., J. Biol. Chem., 266, 8807, 1991. After cells were suspended to a cell density of 2×10^5/ml in a HEPES buffered physiological saline containing 0.1 mM Mn^2+, the cells (100 μl) were added to the plate and incubated at 37° C. under 5% CO2 for 60 min. […] As a negative control, the group to which only biotin (unbound with the peptide) had been added was also evaluated. […]

[5] = tested on: human melanoma A375SM cells; experiment: Cell adhesion (spreading) inhibitory activity on anchorage-dependent A375SM cells; format: cell-based; conditions: fibronectin- or vitronectin-coated plates, biotinylated peptide 50 to 200 μg/ml, 60 min
Method: (§4) The human melanoma A375SM cells and human fibrosarcoma HT1080 (both available from ATCC), which are anchorage-dependent cells, were used in the evaluation. Cell adhesion inhibitory activity was evaluated according to the method of Fukai et al. as described in Biochem. Biophys. Res. Commun., 220, 394-398, 1996. The number of spread cells was counted as an index of the cell adhesion inhibitory activity.
(§5) A375SM cells or HT1080 cells were prepared to 2×10^5/ml in Dulbecco's Modified Eagle Medium (DMEM: GIBCO BRL) containing 0.1% Ovalbumin (Wako Pure Chemical Industries, Ltd.). This cell suspension (100 μl) was added to 96-well plates that had been coated with fibronectin or vitronectin (VN), which are one kind of extracellular matrix, and incubated at 37° C. under 5% CO2 for 60 min. Concurrently with addition of the cell suspension, the biotinylated peptide as synthesized in Example 1 was added to the plates to give a final concentration of from 50 to 200 μg/ml. […] FN and VN coatings were carried out by adding to each well, FN or VN phosphate buffered saline (100 μl) that had been prepared to 0.5 μg/ml, by conducting incubation at 37° C. under 5% CO2 for 60 min and then by washing the well with phosphate buffered saline 3 times. […]

[6] = tested on: human fibrosarcoma HT1080; experiment: Cell adhesion (spreading) inhibitory activity on anchorage-dependent HT1080 cells; format: cell-based; conditions: fibronectin- or vitronectin-coated plates, biotinylated peptide 50 to 200 μg/ml, 60 min
Method: as §4, §5

[7] = tested on: Ramos cell line derived from human Burkitt's lymphoma; experiment: Cell adhesion inhibitory activity on Mn2+-treated anchorage-independent Ramos cells on fibronectin-coated plates; format: cell-based; conditions: Ramos cells in 0.1 mM Mn2+, biotinylated peptide 50 to 200 μg/ml, 60 min, adherent cells counted
From the text: as §1, §2, §3

## GRGDS [GRGDS peptide]
[1]
  rate of clearance from the circulation following administration: fast
[2]
  decomposition by enzyme: liable to be decomposed by enzyme
Melanoma cells
  inhibition of experimental metastasis of melanoma cells to the lung: inhibits the experimental metastasis of melanoma cells to the lung

## Gly Leu Lys Pro Gly Val Asp Ala Thr Ile Thr Val Tyr Ala Val (GLKPGVDATITVYAV; also: biotinylated (place not given here)) [SEQ ID NO: 3]
[3]
  cell adhesion inhibitory activity (alanine scanning): equal to or greater than the cell adhesion inhibitory activity of the peptide set forth in SEQ ID NO: 2; also recorded: much greater cell adhesion inhibitory activity compared to the peptide set forth in SEQ ID NO: 2
[3]; listed as SEQ NO: 3
  cell adhesion inhibitory activity (alanine scanning): stronger cell adhesion inhibitory activity than did SEQ NO: 2

## Gly Leu Lys Pro Gly Val Asp Tyr Ala Ile Thr Val Tyr Ala Val (GLKPGVDYAITVYAV; also: biotinylated (place not given here)) [SEQ ID NO: 4]
[3]
  cell adhesion inhibitory activity (alanine scanning): cell adhesion inhibitory activity was lost

## Gly Leu Lys Pro Gly Val Asp Tyr Thr Ala Thr Val Tyr Ala Val (GLKPGVDYTATVYAV; also: biotinylated (place not given here)) [SEQ ID NO: 5]
[3]
  cell adhesion inhibitory activity (alanine scanning): cell adhesion inhibitory activity was lost

## Gly Leu Lys Pro Gly Val Asp Tyr Thr Ile Ala Val Tyr Ala Val (GLKPGVDYTIAVYAV; also: biotinylated (place not given here)) [SEQ ID NO: 6]
[3]
  cell adhesion inhibitory activity (alanine scanning): cell adhesion inhibitory activity was lost

## Gly Leu Lys Pro Gly Val Asp Tyr Thr Ile Thr Ala Tyr Ala Val (GLKPGVDYTITAYAV; also: biotinylated (place not given here)) [SEQ ID NO: 7]
[3]
  cell adhesion inhibitory activity (alanine scanning): equal to or greater than the cell adhesion inhibitory activity of the peptide set forth in SEQ ID NO: 2

## Gly Leu Lys Pro Gly Val Asp Tyr Thr Ile Thr Val Ala Ala Val (GLKPGVDYTITVAAV; also: biotinylated (place not given here)) [SEQ ID NO: 8]
[3]
  cell adhesion inhibitory activity (alanine scanning): equal to or greater than the cell adhesion inhibitory activity of the peptide set forth in SEQ ID NO: 2

## Gly Leu Lys Pro Gly Val Asp Tyr Thr Ile Thr Val Tyr Ala Ala (GLKPGVDYTITVYAA; also: biotinylated (place not given here)) [SEQ ID NO: 9]
[3]
  cell adhesion inhibitory activity (alanine scanning): equal to or greater than the cell adhesion inhibitory activity of the peptide set forth in SEQ ID NO: 2

## Gly Leu Lys Pro Gly Val Asp Tyr Thr Ile Thr Val Tyr Ala Val (GLKPGVDYTITVYAV; also: biotinylated (place not given here)) [SEQ ID NO: 2]
[4]
  cell adhesion inhibitory effect: nearly equal to the activity of the known cell adhesion inhibitory peptide
[5]
  cell adhesion inhibitory action (number of spread cells): exhibits no such action at all
[6]
  cell adhesion inhibitory action (number of spread cells): exhibits no such action at all
[3]; K562 cells in 0.1 mM Mn2+, fibronectin-coated plates, biotinylated peptide 50 to 200 μg/ml, 60 min, adherent cells counted
  cell adhesion inhibitory effect: nearly equal to the activity of a known cell adhesion inhibitory peptide
[3]
  cell adhesion inhibitory activity (alanine scanning): cell adhesion inhibitory activity was noted
[7]
  cell adhesion inhibitory effect: nearly equal to the activity of the known cell adhesion inhibitory peptide

## SEQ ID NO: 10: known peptide possessing cell adhesion inhibitory activity (Japanese Unexamined Patent Application Hei 10-147600); sequence not printed in the text (TEATIYGLEPGTEYTIYVIAL) [reference compound]
[5]
  cell adhesion inhibitory action (number of spread cells): had a cell adhesion inhibitory action; also recorded: possesses a cell spreading inhibitory action
[6]
  cell adhesion inhibitory action (number of spread cells): had a cell adhesion inhibitory action; also recorded: possesses a cell spreading inhibitory action
